Tested on: BphK-KKS
Experiment: absorbance at […] nm, non-linear regression
Format: biochemical, Acidovorax sp. KKS102
Conditions: GSH held constant, CDNB varied 0.3-2.1 mM, 50 mM sodium phosphate pH 6.5; read-out: CDNB / K m

**Q.** Which Km does the source give for `O=[N+]([O-])c1ccc(Cl)c([N+](=O)[O-])c1` [CDNB, 1-chloro-2,4-dinitrobenzene] here?
**A.** 2580 ± 140 µM

Reference: paper PMC6396153, “Dechlorination of polychlorobiphenyl degradation metabolites by a recombinant glutathione S‐transferase from Acidovorax sp. KKS102” (FEBS Open Bio, 2019)
